ChEMBL document CHEMBL3885861, “Open TG-GATES”

Species: Rattus norvegicus
Experiment: Open TG-GATES - Regimen: Daily Repeat
Format: toxicity, organism-based, Sprague-Dawley
Parameters: regimen Daily Repeat, gender Male, age 6 weeks
Conditions: in vivo, po, route gavage; for APTT / Bas / Eos / Fbg / Hb / Ht / Lym / MCH / MCHC / MCV / Mono / Neu / PT / Plat / RBC / Ret / WBC: tissue Blood; for KIDNEY_L / KIDNEY_R / KIDNEY_TOTAL: tissue Kidney; for LIVER: tissue Liver; for A/G / ALP / ALT / AST / BUN / CRE / Ca / Cl / DBIL / GLC / IP / K / LDH / Na / PL / RALB / TBIL / TC / TG / TP / gamma-GTP: tissue Plasma
[1] = 0 mg/kg, 72 h, dose level Control, time 3 day
[2] = 0 mg/kg, […], dose level Control, time 7 day
[3] = 0 mg/kg, […], dose level Control, time 14 day
[4] = 0 mg/kg, […], dose level Control, time 28 day
[5] = 50 mg/kg, 72 h, dose level Low, time 3 day
[6] = 50 mg/kg, […], dose level Low, time 7 day
[7] = 50 mg/kg, […], dose level Low, time 14 day
[8] = 50 mg/kg, […], dose level Low, time 28 day

## CC(=O)Oc1cc(C(C)C)c(OCCN(C)C)cc1C [MOXISYLYTE]
[1]
  TERMINAL_BW: 216.7 g
  APTT: 21.2 s
  Bas: 0%
  Eos: 1%
  Fbg: 327.4 mg/dL
  Hb: 13.7 g/dL
  Ht: 39.2%
  Lym: 81.2%
  MCH: 20.9 pg
  MCHC: 34.9%
  MCV: 59.9 fL
  Mono: 2.4%
  Neu: 14.2%
  PT: 16.5 s
  Plat: 116.4 x10_4/uL
  RBC: 655.4 x10_4/ul
  Ret: 6.2%
  WBC: 102.1 x10_2/uL
  KIDNEY_L: 0.9 g
  KIDNEY_R: 1 g
  KIDNEY_TOTAL: 1.9 g
  LIVER: 10.3 g
  A/G: 1.2
  ALP: 1472.6 IU/L
  ALT: 42.8 IU/L
  AST: 70.4 IU/L
  BUN: 17.2 mg/dL
  CRE: 0.2 mg/dL
  Ca: 10.8 mg/dL
  Cl: 106.6 meq/L
  DBIL: 0.004 mg/dL
  GLC: 181.4 mg/dL
  IP: 7 mg/dL
  K: 4.2 meq/L
  LDH: 202.6 IU/L
  Na: 142.4 meq/L
  PL: 154.2 mg/dL
  RALB: 3.1 g/dL
  TBIL: 0.014 mg/dL
  TC: 75.8 mg/dL
  TG: 97 mg/dL
  TP: 5.7 g/dL
  gamma-GTP: 1 IU/L
[2]
  TERMINAL_BW: 251.3 g
  APTT: 22.9 s
  Bas: 0%
  Eos: 0.6%
  Fbg: 294.6 mg/dL
  Hb: 13.6 g/dL
  Ht: 39%
  Lym: 81.4%
  MCH: 20.7 pg
  MCHC: 34.8%
  MCV: 59.5 fL
  Mono: 2%
  Neu: 15%
  PT: 15.6 s
  Plat: 119.6 x10_4/uL
  RBC: 656.8 x10_4/ul
  Ret: 5.1%
  WBC: 75.9 x10_2/uL
  KIDNEY_L: 1.1 g
  KIDNEY_R: 1.1 g
  KIDNEY_TOTAL: 2.1 g
  LIVER: 11.2 g
  A/G: 1.3
  ALP: 1660 IU/L
  ALT: 40.4 IU/L
  AST: 71.2 IU/L
  BUN: 18 mg/dL
  CRE: 0.2 mg/dL
  Ca: 10.7 mg/dL
  Cl: 106.6 meq/L
  DBIL: 0 mg/dL
  GLC: 189.2 mg/dL
  IP: 6.7 mg/dL
  K: 4.1 meq/L
  LDH: 219.2 IU/L
  Na: 142.6 meq/L
  PL: 155.2 mg/dL
  RALB: 3 g/dL
  TBIL: 0.004 mg/dL
  TC: 72.2 mg/dL
  TG: 138 mg/dL
  TP: 5.4 g/dL
  gamma-GTP: 1.4 IU/L
[3]
  TERMINAL_BW: 305.9 g
  APTT: 22.6 s
  Bas: 0%
  Eos: 1%
  Fbg: 308.2 mg/dL
  Hb: 15.1 g/dL
  Ht: 41.2%
  Lym: 79.4%
  MCH: 21.6 pg
  MCHC: 36.6%
  MCV: 59 fL
  Mono: 2%
  Neu: 16.4%
  PT: 16.1 s
  Plat: 118 x10_4/uL
  RBC: 699.2 x10_4/ul
  Ret: 5%
  WBC: 125 x10_2/uL
  KIDNEY_L: 1.2 g
  KIDNEY_R: 1.3 g
  KIDNEY_TOTAL: 2.5 g
  LIVER: 13.3 g
  A/G: 1.1
  ALP: 1709.2 IU/L
  ALT: 40 IU/L
  AST: 71.4 IU/L
  BUN: 20 mg/dL
  CRE: 0.2 mg/dL
  Ca: 10.7 mg/dL
  Cl: 106.2 meq/L
  DBIL: 0 mg/dL
  GLC: 197.6 mg/dL
  IP: 6 mg/dL
  K: 4.2 meq/L
  LDH: 170.8 IU/L
  Na: 141.4 meq/L
  PL: 148.4 mg/dL
  RALB: 3.1 g/dL
  TBIL: 0.008 mg/dL
  TC: 75.4 mg/dL
  TG: 114.6 mg/dL
  TP: 5.7 g/dL
  gamma-GTP: 1.4 IU/L
[4]
  TERMINAL_BW: 397.2 g
  APTT: 24 s
  Bas: 0%
  Eos: 1%
  Fbg: 320.8 mg/dL
  Hb: 14.4 g/dL
  Ht: 40.5%
  Lym: 82.2%
  MCH: 19.4 pg
  MCHC: 35.5%
  MCV: 54.7 fL
  Mono: 1.8%
  Neu: 13.5%
  PT: 15.9 s
  Plat: 100.5 x10_4/uL
  RBC: 741 x10_4/ul
  Ret: 3.1%
  WBC: 119.2 x10_2/uL
  KIDNEY_L: 1.5 g
  KIDNEY_R: 1.5 g
  KIDNEY_TOTAL: 3 g
  LIVER: 16.3 g
  A/G: 1.1
  ALP: 1031.5 IU/L
  ALT: 47.5 IU/L
  AST: 81.5 IU/L
  BUN: 17.5 mg/dL
  CRE: 0.2 mg/dL
  Ca: 10.3 mg/dL
  Cl: 104.5 meq/L
  DBIL: 0.0025 mg/dL
  GLC: 201.5 mg/dL
  IP: 6.9 mg/dL
  K: 4.1 meq/L
  LDH: 261 IU/L
  Na: 141 meq/L
  PL: 134.2 mg/dL
  RALB: 3 g/dL
  TBIL: 0.0025 mg/dL
  TC: 64.5 mg/dL
  TG: 116.5 mg/dL
  TP: 5.9 g/dL
  gamma-GTP: 1.5 IU/L
[5]
  TERMINAL_BW: 225.1 g
  APTT: 21.1 s
  Bas: 0%
  Eos: 1%
  Fbg: 329.8 mg/dL
  Hb: 13.7 g/dL
  Ht: 39.1%
  Lym: 80.6%
  MCH: 21.5 pg
  MCHC: 35%
  MCV: 61.5 fL
  Mono: 2.2%
  Neu: 14.6%
  PT: 16.2 s
  Plat: 126.9 x10_4/uL
  RBC: 635.6 x10_4/ul
  Ret: 6%
  WBC: 99.3 x10_2/uL
  KIDNEY_L: 1 g
  KIDNEY_R: 1 g
  KIDNEY_TOTAL: 1.9 g
  LIVER: 10.4 g
  A/G: 1.2
  ALP: 1826.8 IU/L
  ALT: 42.8 IU/L
  AST: 72.2 IU/L
  BUN: 16.2 mg/dL
  CRE: 0.2 mg/dL
  Ca: 11 mg/dL
  Cl: 106.4 meq/L
  DBIL: 0.004 mg/dL
  GLC: 178.8 mg/dL
  IP: 7.4 mg/dL
  K: 4.5 meq/L
  LDH: 242.8 IU/L
  Na: 141.4 meq/L
  PL: 158.8 mg/dL
  RALB: 3.1 g/dL
  TBIL: 0.004 mg/dL
  TC: 78.2 mg/dL
  TG: 108.8 mg/dL
  TP: 5.7 g/dL
  gamma-GTP: 1.2 IU/L
[6]
  TERMINAL_BW: 248.6 g
  APTT: 21.8 s
  Bas: 0%
  Eos: 0.6%
  Fbg: 312.6 mg/dL
  Hb: 13.7 g/dL
  Ht: 39.2%
  Lym: 79.6%
  MCH: 20.9 pg
  MCHC: 35.1%
  MCV: 59.5 fL
  Mono: 2.2%
  Neu: 16.8%
  PT: 15.9 s
  Plat: 122.1 x10_4/uL
  RBC: 659 x10_4/ul
  Ret: 4.9%
  WBC: 88.2 x10_2/uL
  KIDNEY_L: 1.1 g
  KIDNEY_R: 1.1 g
  KIDNEY_TOTAL: 2.2 g
  LIVER: 11.2 g
  A/G: 1.2
  ALP: 1475.2 IU/L
  ALT: 45 IU/L
  AST: 82.6 IU/L
  BUN: 16.6 mg/dL
  CRE: 0.2 mg/dL
  Ca: 10.6 mg/dL
  Cl: 106.6 meq/L
  DBIL: 0 mg/dL
  GLC: 179.4 mg/dL
  IP: 6.8 mg/dL
  K: 4.1 meq/L
  LDH: 202 IU/L
  Na: 141.6 meq/L
  PL: 146.6 mg/dL
  RALB: 3 g/dL
  TBIL: 0 mg/dL
  TC: 70.6 mg/dL
  TG: 144 mg/dL
  TP: 5.5 g/dL
  gamma-GTP: 1.2 IU/L
[7]
  TERMINAL_BW: 317.3 g
  APTT: 20.8 s
  Bas: 0%
  Eos: 1%
  Fbg: 308.8 mg/dL
  Hb: 14.2 g/dL
  Ht: 39.3%
  Lym: 77.8%
  MCH: 20.7 pg
  MCHC: 36.2%
  MCV: 57.2 fL
  Mono: 2.4%
  Neu: 18%
  PT: 16.1 s
  Plat: 108.1 x10_4/uL
  RBC: 686.8 x10_4/ul
  Ret: 5.1%
  WBC: 113.2 x10_2/uL
  KIDNEY_L: 1.3 g
  KIDNEY_R: 1.2 g
  KIDNEY_TOTAL: 2.5 g
  LIVER: 14 g
  A/G: 1.2
  ALP: 1349.4 IU/L
  ALT: 45.8 IU/L
  AST: 77.8 IU/L
  BUN: 19.8 mg/dL
  CRE: 0.2 mg/dL
  Ca: 10.8 mg/dL
  Cl: 107 meq/L
  DBIL: 0 mg/dL
  GLC: 186.6 mg/dL
  IP: 6.3 mg/dL
  K: 4.4 meq/L
  LDH: 256 IU/L
  Na: 141 meq/L
  PL: 156 mg/dL
  RALB: 3.2 g/dL
  TBIL: 0.002 mg/dL
  TC: 73.2 mg/dL
  TG: 184.6 mg/dL
  TP: 5.8 g/dL
  gamma-GTP: 1.4 IU/L
[8]
  TERMINAL_BW: 361 g
  APTT: 24.3 s
  Bas: 0%
  Eos: 1.2%
  Fbg: 324.8 mg/dL
  Hb: 14.9 g/dL
  Ht: 41.8%
  Lym: 84%
  MCH: 19.3 pg
  MCHC: 35.6%
  MCV: 54.3 fL
  Mono: 2%
  Neu: 12%
  PT: 16 s
  Plat: 101.5 x10_4/uL
  RBC: 770 x10_4/ul
  Ret: 2.5%
  WBC: 142.9 x10_2/uL
  KIDNEY_L: 1.4 g
  KIDNEY_R: 1.4 g
  KIDNEY_TOTAL: 2.8 g
  LIVER: 14.8 g
  A/G: 1
  ALP: 1078.4 IU/L
  ALT: 40.2 IU/L
  AST: 66.8 IU/L
  BUN: 17 mg/dL
  CRE: 0.2 mg/dL
  Ca: 10.4 mg/dL
  Cl: 106.6 meq/L
  DBIL: 0.002 mg/dL
  GLC: 184.4 mg/dL
  IP: 6.4 mg/dL
  K: 4.2 meq/L
  LDH: 147 IU/L
  Na: 142 meq/L
  PL: 151.2 mg/dL
  RALB: 3 g/dL
  TBIL: 0.002 mg/dL
  TC: 70 mg/dL
  TG: 170.4 mg/dL
  TP: 6 g/dL
  gamma-GTP: 2 IU/L
